Data published in patent publication US10058550B2, “Methods of treating heart failure” (priority 2015, dated 2018).
pEC50: −log10 of the molar value.

Molecular target: human APJ receptor (Homo sapiens (Human), UniProt P35414)
Assay: biochemical
Format: biochemical
Details: read-out: Activity hAPJ SPA EC50 IP
Method in brief: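 Agonist-stimulated [35S]GTPγS (0.2 nM) binding was read by SPA after 90 min at room temperature. Buffer: 20 mM HEPES pH 7.5 with 5 mM MgCl2, 200 mM NaCl, 3 μM GDP, 0.1% BSA; membranes were from a stable human APJ CHO line. EC50 values are averages of independent runs, fitted by non-linear regression.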

human APJ receptor, sequence (P35414 whole entry): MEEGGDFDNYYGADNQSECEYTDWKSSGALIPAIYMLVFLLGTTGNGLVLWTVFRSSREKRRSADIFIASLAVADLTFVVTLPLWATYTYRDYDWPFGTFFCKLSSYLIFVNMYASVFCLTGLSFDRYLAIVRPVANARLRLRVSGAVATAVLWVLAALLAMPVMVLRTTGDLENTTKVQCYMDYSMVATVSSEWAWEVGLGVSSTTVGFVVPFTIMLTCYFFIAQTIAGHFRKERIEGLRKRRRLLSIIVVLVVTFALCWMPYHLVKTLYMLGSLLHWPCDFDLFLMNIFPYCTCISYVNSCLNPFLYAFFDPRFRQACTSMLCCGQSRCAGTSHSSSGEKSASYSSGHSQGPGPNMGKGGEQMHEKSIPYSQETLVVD

## COc1cccc(-c2nnc(NS(=O)(=O)[C@@H](C)[C@H](OC)c3ncc(C)cn3)n2-c2cccc(C(F)(F)F)c2)n1 [Example 75.0, (1R,2S)-1-methoxy-N-(5-(6-methoxy-2-pyridinyl)-4-(3-(trifluoromethyl)phenyl)-4H-1,2,4-triazol-3-yl)-1-(5-methyl-2-pyrimidinyl)-2-propanesulfonamide]
  pEC50: 7.92

## COc1cccc(-c2nnc(NS(=O)(=O)[C@@H](C)[C@H](OC)c3ncc(C)cn3)n2-c2ccc(N(C)C)cc2)n1 [Example 77.0, (1R,2S)-N-(4-(4-(dimethylamino)phenyl)-5-(6-methoxy-2-pyridinyl)-4H-1,2,4-triazol-3-yl)-1-methoxy-1-(5-methyl-2-pyrimidinyl)-2-propanesulfonamide]
  pEC50: 8.15

## COc1cccc(-c2nnc(NS(=O)(=O)[C@@H](C)[C@H](C)c3ncc(F)cn3)n2-c2ccccc2)n1 [Example 78.0, (2S,3R)-3-(5-fluoro-2-pyrimidinyl)-N-(5-(6-methoxy-2-pyridinyl)-4-phenyl-4H-1,2,4-triazol-3-yl)-2-butanesulfonamide]
  pEC50: 8.03

## CCO[C@H](c1ncc(F)cn1)[C@H](C)S(=O)(=O)Nc1nnc(-c2cncc(C)c2)n1-c1c(OC)cccc1OC [Example 79.0, (1R,2S)-N-(4-(2,6-dimethoxyphenyl)-5-(5-methyl-3-pyridinyl)-4H-1,2,4-triazol-3-yl)-1-ethoxy-1-(5-fluoro-2-pyrimidinyl)-2-propanesulfonamide]
  pEC50: 9.39

## COc1cccc(OC)c1-n1c(NS(=O)(=O)[C@@H](C)[C@H](O)c2ncc(F)cn2)nnc1-c1cccnc1 [Example 82.0, (1R,2S)-N-(4-(2,6-dimethoxyphenyl)-5-(3-pyridinyl)-4H-1,2,4-triazol-3-yl)-1-(5-fluoro-2-pyrimidinyl)-1-hydroxy-2-propanesulfonamide]
  pEC50: 8.55

## COc1cc(-c2nnc(NS(=O)(=O)[C@@H](C)[C@H](C)c3ncc(C)cn3)n2-c2c(OC)cccc2OC)ccn1 [Example 84.0, (2S,3R)-N-(4-(2,6-dimethoxyphenyl)-5-(2-methoxypyridin-4-yl)-4H-1,2,4-triazol-3-yl)-3-(5-methylpyrimidin-2-yl)butane-2-sulfonamide]
  pEC50: 8.28

## COc1cccc(OC)c1-n1c(NS(=O)(=O)[C@@H](C)[C@H](C)c2ncc(C)cn2)nnc1-c1ccnc(C)c1 [Example 85.0, (2S,3R)-N-(4-(2,6-dimethoxyphenyl)-5-(2-methylpyridin-4-yl)-4H-1,2,4-triazol-3-yl)-3-(5-methylpyrimidin-2-yl)butane-2-sulfonamide]
  pEC50: 8.28

## COc1cncc(-c2nnc(NS(=O)(=O)[C@@H](C)[C@H](C)c3ncc(C)cn3)n2-c2c(OC)cccc2OC)c1 [Example 86.0, (2S,3R)-N-(4-(2,6-dimethoxyphenyl)-5-(5-methoxypyridin-3-yl)-4H-1,2,4-triazol-3-yl)-3-(5-methylpyrimidin-2-yl)butane-2-sulfonamide]
  pEC50: 8.89

## COc1cccc(OC)c1-n1c(NS(=O)(=O)[C@@H](C)[C@H](C)c2ncc(C)cn2)nnc1-c1cccc(C)n1 [Example 87.0, (2S,3R)-N-(4-(2,6-dimethoxyphenyl)-5-(6-methylpyridin-2-yl)-4H-1,2,4-triazol-3-yl)-3-(5-methylpyrimidin-2-yl)butane-2-sulfonamide]
  pEC50: 9.40

## COc1cccc(OC)c1-n1c(NS(=O)(=O)[C@@H](C)[C@H](OC)c2ncc(Cl)cn2)nnc1-c1cccc(C)n1 [Example 88.0, (1R,2S)-1-(5-chloropyrimidin-2-yl)-N-(4-(2,6-dimethoxyphenyl)-5-(6-methylpyridin-2-yl)-4H-1,2,4-triazol-3-yl)-1-methoxypropane-2-sulfonamide]
  pEC50: 9.43

## COc1cccc(OC)c1-n1c(NS(=O)(=O)[C@H](C)[C@@H](OC)c2ncc(Cl)cn2)nnc1-c1cccc(C)n1 [Example 89.0, (1S,2R)-1-(5-chloropyrimidin-2-yl)-N-(4-(2,6-dimethoxyphenyl)-5-(6-methylpyridin-2-yl)-4H-1,2,4-triazol-3-yl)-1-methoxypropane-2-sulfonamide]
  pEC50: 7.96

## COc1ncnc(OC)c1-n1c(NS(=O)(=O)[C@@H](C)[C@H](OC)c2ncc(C)cn2)nnc1-c1cccc(C)n1 [Example 90.0, (1R,2S)-N-(4-(4,6-dimethoxypyrimidin-5-yl)-5-(6-methylpyridin-2-yl)-4H-1,2,4-triazol-3-yl)-1-methoxy-1-(5-methylpyrimidin-2-yl)propane-2-sulfonamide]
  pEC50: 8.62

## COc1cccc(-c2nnc(NS(=O)(=O)C(C)C)n2-c2c(OC)cccc2OC)n1 [Example 100.0, N-(4-(2,6-dimethoxyphenyl)-5-(6-methoxypyridin-2-yl)-4H-1,2,4-triazol-3-yl)propane-2-sulfonamide]
  pEC50: 6.96

## COc1cc(-c2nnc(NS(=O)(=O)[C@@H](C)[C@H](OC)c3ncc(C)cn3)n2-c2c(OC)cccc2OC)ccn1 [Example 101.0, (1R,2S)-N-(4-(2,6-dimethoxyphenyl)-5-(2-methoxypyridin-4-yl)-4H-1,2,4-triazol-3-yl)-1-methoxy-1-(5-methylpyrimidin-2-yl)propane-2-sulfonamide]
  pEC50: 8.15

## COc1cccc(OC)c1-n1c(NS(=O)(=O)[C@@H](C)[C@H](OC)c2ncc(C)cn2)nnc1-c1ccncc1 [Example 102.0, (1R,2S)-N-(4-(2,6-dimethoxyphenyl)-5-(pyridin-4-yl)-4H-1,2,4-triazol-3-yl)-1-methoxy-1-(5-methylpyrimidin-2-yl)propane-2-sulfonamide]
  pEC50: 7.74

## COc1cccc(OC)c1-n1c(NS(=O)(=O)[C@@H](C)[C@H](OC)c2ncc(C)cn2)nnc1-c1cccc(C)n1 [Example 103.0, (1R,2S)-N-(4-(2,6-dimethoxyphenyl)-5-(6-methylpyridin-2-yl)-4H-1,2,4-triazol-3-yl)-1-methoxy-1-(5-methylpyrimidin-2-yl)propane-2-sulfonamide]
  pEC50: 9.29

## COc1cccc(OC)c1-n1c(NS(=O)(=O)[C@@H](C)[C@H](OC)c2ncc(C)cn2)nnc1-c1ccnc(C)c1 [Example 104.0, (1R,2S)-N-(4-(2,6-dimethoxyphenyl)-5-(2-methylpyridin-4-yl)-4H-1,2,4-triazol-3-yl)-1-methoxy-1-(5-methylpyrimidin-2-yl)propane-2-sulfonamide]
  pEC50: 8.62

## CCOc1cccc(-c2nnc(NS(=O)(=O)[C@@H](C)[C@H](C)c3ncc(F)cn3)n2-c2c(OC)cccc2OC)n1 [Example 161.0, (2S,3R)-N-(4-(2,6-dimethoxyphenyl)-5-(6-ethoxy-2-pyridinyl)-4H-1,2,4-triazol-3-yl)-3-(5-fluoro-2-pyrimidinyl)-2-butanesulfonamide]
  pEC50: 10.21

## COc1cccc(OC)c1-n1c(NS(=O)(=O)[C@@H](C)[C@H](C)c2ncc(F)cn2)nnc1-c1cccc(=O)[nH]1 [Example 168.0, (2S,3R)-N-(4-(2,6-dimethoxyphenyl)-5-(6-oxo-1,6-dihydro-2-pyridinyl)-4H-1,2,4-triazol-3-yl)-3-(5-fluoro-2-pyrimidinyl)-2-butanesulfonamide]
  pEC50: 6.96

## CCOc1cccc(-c2nnc(NS(=O)(=O)[C@@H](C)[C@H](OC)c3ncc(C)cn3)n2-c2c(OC)cccc2OC)n1 [Example 172.0, (1R,2S)-N-(4-(2,6-dimethoxyphenyl)-5-(6-ethoxypyridin-2-yl)-4H-1,2,4-triazol-3-yl)-1-methoxy-1-(5-methylpyrimidin-2-yl)propane-2-sulfonamide]
  pEC50: 10.19

## CCc1cccc(-c2nnc(NS(=O)(=O)[C@@H](C)[C@H](OC)c3ncc(C)cn3)n2-c2c(OC)cccc2OC)n1 [Example 174.0, (1R,2S)-N-(4-(2,6-dimethoxyphenyl)-5-(6-ethylpyridin-2-yl)-4H-1,2,4-triazol-3-yl)-1-methoxy-1-(5-methylpyrimidin-2-yl)propane-2-sulfonamide]
  pEC50: 9.70

## CCc1cccc(-c2nnc(NS(=O)(=O)[C@@H](C)[C@H](O)c3ncc(C)cn3)n2-c2c(OC)cccc2OC)n1 [Example 175.0, (1R,2S)-N-(4-(2,6-dimethoxyphenyl)-5-(6-ethylpyridin-2-yl)-4H-1,2,4-triazol-3-yl)-1-hydroxy-1-(5-methylpyrimidin-2-yl)propane-2-sulfonamide]
  pEC50: 9.41

## CCc1cccc(-c2nnc(NS(=O)(=O)[C@@H](C)[C@H](C)c3ncc(C)cn3)n2-c2c(OC)cccc2OC)n1 [Example 176.0, (2S,3R)-N-(4-(2,6-dimethoxyphenyl)-5-(6-ethylpyridin-2-yl)-4H-1,2,4-triazol-3-yl)-3-(5-methylpyrimidin-2-yl)butane-2-sulfonamide]
  pEC50: 9.82

## COc1cc(C)cc(-c2nnc(NS(=O)(=O)[C@@H](C)[C@H](C)c3ncc(F)cn3)n2-c2c(OC)cccc2OC)n1 [Example 177.0, (2S,3R)-N-(4-(2,6-dimethoxyphenyl)-5-(6-methoxy-4-methylpyridin-2-yl)-4H-1,2,4-triazol-3-yl)-3-(5-fluoropyrimidin-2-yl)butane-2-sulfonamide]
  pEC50: 9.92

## COc1cc(C)cc(-c2nnc(NS(=O)(=O)[C@@H](C)[C@H](C)c3ncc(C)cn3)n2-c2c(OC)cccc2OC)n1 [Example 178.0, (2S,3R)-N-(4-(2,6-dimethoxyphenyl)-5-(6-methoxy-4-methylpyridin-2-yl)-4H-1,2,4-triazol-3-yl)-3-(5-methylpyrimidin-2-yl)butane-2-sulfonamide]
  pEC50: 9.92

## COc1cc(C)cc(-c2nnc(NS(=O)(=O)[C@@H](C)[C@H](OC)c3ncc(C)cn3)n2-c2c(OC)cccc2OC)n1 [Example 179.0, (1R,2S)-N-(4-(2,6-dimethoxyphenyl)-5-(6-methoxy-4-methylpyridin-2-yl)-4H-1,2,4-triazol-3-yl)-1-methoxy-1-(5-methylpyrimidin-2-yl)propane-2-sulfonamide]
  pEC50: 8.32

## CCOc1cccc(-c2nnc(NS(=O)(=O)[C@@H](C)[C@H](C)c3ncc(C)cn3)n2-c2c(OC)cccc2OC)n1 [Example 180.0, (2S,3R)-N-(4-(2,6-dimethoxyphenyl)-5-(6-ethoxypyridin-2-yl)-4H-1,2,4-triazol-3-yl)-3-(5-methylpyrimidin-2-yl)butane-2-sulfonamide]
  pEC50: 10.17
